ChEMBL document CHEMBL4229373, “A comprehensive review of chalcone derivatives as antileishmanial agents” (Eur J Med Chem, 2018)
Values after ≈ are worked out from the molar mass of the structure shown. Blank lines part the entries; values can stand above or below the compound they belong to.

What was measured:
[1] = tested on: Leishmania donovani; experiment: Antileishmanial activity against Leishmania donovani L82 amastigotes infected in CD1 mouse peritoneal macrophages after 5 days by Giemsa staining based microscopic method; type: functional; settings: L82, 120 h, read-out: ED50 (the source's name)
[2] = tested on: Leishmania donovani; experiment: Antileishmanial activity against Leishmania donovani MHOM/SD/00/1SD2D […] amastigotes infected in human peripheral blood monocyte-derived macrophages after 48 hrs by [3H]-thymidine incorporation assay; type: functional, organism-based
[3] = tested on: Leishmania amazonensis; experiment: Antileishmanial activity against Leishmania amazonensis LV/79 (MPRO/BR/72/M 1841) amastigotes infected in Balb/c mouse macrophages after 48 hrs by Giemsa staining based light microscopic method; type: functional; settings: read-out: ED50 (the source's name)
[4] = tested on: Leishmania panamensis; experiment: Antileishmanial activity against GFP fused Leishmania panamensis MHOM/CO/87/UA140 amastigotes infected in human […] cells after 72 hrs by flow cytometry; type: functional, organism-based; settings: MHOM/CO/87/UA140, 72 h
[5] = tested on: Leishmania amazonensis; experiment: Antileishmanial activity against Leishmania amazonensis MHOM/BR/76/LTB-012 axenic amastigotes; type: functional, organism-based
[6] = tested on: Leishmania amazonensis; experiment: Antileishmanial activity against Leishmania amazonensis MHOM/BR/76/LTB-012 axenic amastigotes after 72 hrs by MTT dye based assay; type: functional, organism-based; settings: MHOM/BR/76/LTB-012, 72 h
[7] = tested on: Leishmania donovani; experiment: Antileishmanial activity against DsRed-positive Leishmania donovani Dd8 amastigotes infected in mouse J774A1 cells after 48 hrs by flow cytometry; type: functional, organism-based; settings: Dd8, J774.A1, 48 h
[8] = tested on: Leishmania donovani; experiment: Antileishmanial activity against Leishmania donovani amastigotes; type: functional, organism-based
[9] = tested on: Leishmania amazonensis; experiment: Antileishmanial activity against Leishmania amazonensis MHOM/BR/75/M-2904 strain Lb2904 amastigotes infected in mouse J774A1 cells after 48 hrs by Giemsa staining based microscopic method; type: functional, organism-based; settings: MHOM/BR/75/M-2904 Lb290, J774.A1, 48 h
[10] = tested on: Leishmania major; experiment: Antileishmanial activity against Leishmania major amastigotes infected in human peripheral blood monocyte-derived macrophages; type: functional, organism-based

Compound: C=CCOc1ccc(C(=O)/C=C/c2ccc(OC)c(OC)c2)cc1
IC50 [2]: 420 nM

Compound: COc1cc(O)c(C(=O)/C=C/c2ccccc2)c(O)c1
EC50 [3]: 24 µg/mL (≈ 88.8 µM)

Compound: O=C(/C=C/c1cccc(Nc2ccnc3cc(Cl)ccc23)c1)c1ccc(Br)cc1
IC50 [4]: 0.88 µg/mL (≈ 1.9 µM)

Compound: O=C(/C=C/c1cccc(Nc2ccnc3cc(Cl)ccc23)c1)c1ccc(Cl)cc1
IC50 [4]: 0.79 µg/mL (≈ 1.88 µM)

Compound: COc1ccc(/C=C/C(=O)c2ccc(OCCCCOc3cc(Cl)ccc3Oc3ccc(Cl)cc3Cl)cc2)cc1OC
IC50 [4]: 10.2 µg/mL (≈ 16.2 µM)

Compound: COc1ccc(/C=C/C(=O)c2ccc(OCCCCCOc3cc(Cl)ccc3Oc3ccc(Cl)cc3Cl)cc2)cc1OC
IC50 [4]: 13.5 µg/mL (≈ 21 µM)

Compound: COc1ccc(/C=C/C(=O)c2ccc(OCCCOc3cc(Cl)ccc3Oc3ccc(Cl)cc3Cl)cc2)cc1OC
IC50 [4]: 9.4 µg/mL (≈ 15.3 µM)

Compound: COc1cc(O)c(C(=O)/C=C/c2ccc(O)cc2)c(O)c1
IC50 [5]: 61.4 µM

Compound: COc1cc(OC)c(C(=O)/C=C/c2ccccc2)c(O)c1OC
IC50 [6]: 0.8 µM

Compound: CC(=O)c1sc(N/N=C/c2cccc(/C=C/C(=O)c3ccco3)c2)nc1C
IC50 [7]: 14 µM

Compound: COc1ccc(OC)c(C(=O)/C=C/c2ccccn2)c1
IC50 [8]: 950 nM

Compound: O=C(/C=C/c1cccc(S(=O)(=O)Nc2ccccc2)c1)c1ccccc1
IC50 [9]: 2000 nM

Compound: COc1ccc(/C=C/C(=O)c2ccccc2)cc1 [4-METHOXY CHALCONE]
IC50 [9]: > 30000 nM

Compound: COc1cc(O)cc(O)c1C(=O)/C=C/c1ccccc1 [CARDAMOMIN]
IC50 [6]: 8 µM

Results, then the compound that gave them:

EC50 [1]: 1380 nM
Compound: O=C(/C=C/c1ccc2ccccc2c1)c1ccc(O)cc1

EC50 [1]: 1500 nM
Compound: COc1ccc(C(=O)/C=C/c2cnc3ccccc3c2)c(OC)c1

EC50 [1]: 1480 nM
Compound: O=C(/C=C/c1ccccn1)c1ccc(O)cc1

IC50 [2]: 650 nM
Compound: C=CCOc1ccc(C(=O)/C=C/c2cccc(OC)c2OC)cc1

IC50 [4]: 6.24 µg/mL (≈ 12.9 µM)
Compound: COc1ccc(/C=C/C(=O)c2ccc(OCCCCOc3cccc4cccnc34)cc2)cc1OC

IC50 [10]: 0.5 µg/mL (≈ 1.48 µM)
Compound: C=CC(C)(C)c1cc(/C=C/C(=O)c2ccc(O)cc2)c(OC)cc1O [LICOAGROCHACONE A]
